Data reported in patent US20250221936A1, “ENGINEERED HEMICHANNELS, ENGINEERED VESICLES, AND USES THEREOF” (VIRGINIA TECH INTELLECTUAL PROPERTIES, INC., priority 2018, published 2025).
Where two headings read alike, the source gives them in different places.

How the values were obtained:
[1] = 0.05% Brij-78, corneal application, cited from earlier work; for peptide in aqueous humor / peptide in vitreous humor: 20 and 40 minutes
[2] = tested on: 8 mm diameter round wound; details: cited from earlier work
GST-Cx43 CT QQ/KK = biological target: T1, GST-Cx43 CT QQ/KK (Rattus norvegicus, UniProt P08050, K345Q/K346Q); experiment: EDC cross-linking, Cx43 CT QQ/KK mutant substrate; type: binding; details: 5, 10 and 25 μM
T1 construct: pGEX-6-P2 Cx43 CT amino acids 255-382; made in house; host or cells: E. coli BL21
Procedure: To characterize the interaction between the Cx43 CT substrate and peptides, the in vitro kinase assay was performed as above with modification and the constituents then subjected to a cross-linking reaction. The assay buffer used was 20 mM 3-(N-morpholino) propanesulfonic acid (MOPS), pH 7.2. All other reagents present in the kinase reaction were maintained as described above. The reaction was allowed to proceed at 37° C. for 15 minutes. Afterwards, the carbodiimide crosslinker 1-Ethyl-3-(3-dimethylaminopropyl) carbodiimide HCl (EDC) (Thermo, 22980) was added to each solution for a final concentration of 20 mM. The solution was allowed to cross-link for one hour at room temperature. The reaction was stopped by the addition of 4×LDS loading buffer, boiled for 5 minutes and subsequently separated by PAGE. The resulting gel was stained in Coomassie brilliant blue (Sigma, B0770) for two hours and destained in a solution of 4% methanol 7% acetic acid overnight. Gel bands were subsequently excised for mass spectrometric analysis. For the direct interaction between protein and peptides, PBS, pH 7.5 was used as the coupling buffer. The protein (50 μg/ml) and peptide (25 μM) were allowed to react at room temperature for one hour before EDAC was added to the reaction mixture. The reaction was Western blotted for Cx43, GST or NeutroAvidin.

Cx43 Y313-A348 peptide [3] = biological target: T2, Cx43 Y313-A348 peptide (Rattus norvegicus, UniProt P08050); experiment: SPR of captured aCT1 with Cx43 Y313-A348 peptide; type: binding; details: unlinked Cx43 Y313-A348 peptide (25 µM)
T2 construct: made in house; host or cells: chemical synthesis
Procedure: (§1) FIGS. 28A-28D. […] (FIG. 28B) Schematic representation of the Cx43 Y313-A348 peptide synthesized for a binding surface surrogate 1 with linkable cysteine (Cys) on the amino terminus and CT. (FIG. 28C) Single letter amino acid sequence of Cx43 Y313-A348 peptide with predicted helix secondary structure underlined. (FIG. 28D) Surface Plasmon Resonance (SPR) analysis of substrate captured aCT1 (700-1000 RUs) binding recombinant Cx43 CT (100 µM, light grey), unlinked Cx43 Y313-A348 peptide (25 µM, black), and disulfide linked Cx43 Y313-A348 (25 µM, dark grey). […] Disulfide cross-linking Cx43 Y313-A348 into a looped conformation results in a loss of aCT1 binding, thus aCT1 interaction with this peptide requires a degree conformational flexibility. Cx43 Y313-A348 peptide can provide an assay for screening for novel Cx43 interacting drugs.
(§2) A […] peptide mimetic encompassing amino acids Y313 through A348 of the Cx43 CT was synthesized, containing the H1 and H2 a-helical regions (FIGS. 28A-28D). […] Cx43 Y313-A348 was designed to have cysteines at its NT and CT, which were used to disulfide cross-link the peptide into a cyclized conformation (FIG. 28B). […]

Cx43 Y313-A348 peptide [4] = experiment: SPR of captured aCT1 with Cx43 Y313-A348 peptide; type: binding; details: disulfide linked Cx43 Y313-A348 (25 µM)
Procedure: as §1, §2

C6 glioma cell line = details: cited from earlier work
implants = experiment: Inflammatory infiltrate at implants, myeloperoxidase stain; type: in vivo; details: 24 hour time point
Text: In attempting to quantify the neutrophil infiltrate using a myeloperoxidase stain, the inventors observed that some of the cells stained darker than others. Upon further investigation, these cells were not neutrophils as but rather were macrophages.

cryo-injured LV wall = details: cited from earlier work; for LV function: 8 week time course; for Cx43 in myocytes bordering the injury: mouse, in vivo; for arrhythmias: pacing and S1-S2 protocols
[5] = tested on: 4 mm long incisional skin injury; details: 60 μM in 20% pluronic gel, cited from earlier work
cancer stem cells CSCs [6] = details: CSCs derived from patient tumors; cited from earlier work
cancer stem cells CSCs [7] = experiment: Cancer stem cell survival; type: cell-based
Text: In another example, JM peptides can selectively target cancer stem cells CSCs. JM2 specific interaction with microtubules concomitantly with a loss of Cx43/microtubule complexing and a decrease in cell-cell communication in CSCs derived from patient tumors was confirmed. […] Current research includes the development of JM2-loaded biodegradable nanoparticles for JM2 sustained delivery in preparation for future clinical trials. In sum, the Cx43 mimetic peptide JM2 represents a novel and potent therapeutic opportunity to target chemoresistant CSCs in cancer treatment. This was described in (Lamouille et al., targeting glioblastoma cancer stem cells with a novel Connexin43 mimetic peptide [abstract]. In: Proceedings of the American Association for Cancer Research Annual Meeting 2017; 2017 Apr. 1-5; Washington, DC. Philadelphia (PA): AACR; Cancer Res 2017;77 (13 Suppl): Abstract nr 4765. doi: 10.1158/1538-7445.AM2017-4765), which is incorporated by reference. Further results can indicate that cancer stem cells derived from other cancers respond similarly to JM peptides. […]

T2 sequence (P08050 with tags, fused parts or gaps): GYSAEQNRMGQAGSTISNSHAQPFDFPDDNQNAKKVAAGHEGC
T1 sequence (P08050 255-382 K345Q/K346Q): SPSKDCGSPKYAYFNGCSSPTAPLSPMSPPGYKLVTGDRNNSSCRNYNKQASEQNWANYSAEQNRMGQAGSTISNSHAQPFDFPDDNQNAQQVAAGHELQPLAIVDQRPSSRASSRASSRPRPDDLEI

RQPKIWFPNRRKPWKKRPRPDDLEI [alpha CT1]
peptide in aqueous humor [1]: detectable level of ACT1 in the internal fluids of the anterior chamber | peptide in vitreous humor [1]: Lower levels of ACT1 could also be detected | peptide in aqueous humor ([1]; listed as ACTI): detectable level of ACTI in the internal fluids of the anterior chamber | peptide in vitreous humor ([1]; listed as ACTI): Lower levels of peptide could also be detected | peptide in retinal pigment epithelial layer [1]: ACT1 was detectable in the retinal pigment epithelial layer | peptide in retinal pigment epithelial layer ([1]; listed as ACTI): peptide was detectable in the retinal pigment epithelial layer | scar size ([2]; 150 μM peptide, collagen gel, 30 days): significantly (p<0.05) smaller than the controls | wound closure rate ([2]; rat, in vivo): consistent significantly faster closure rates than the other 4 wounds | EDC cross-linking to Cx43 CT QQ/KK mutant substrate (GST-Cx43 CT QQ/KK): no evidence of cross-linking | SPR interaction (Cx43 Y313-A348 peptide [3]): levels of interaction with aCT1 comparable to the full Cx43 CT sequence | SPR interaction (Cx43 Y313-A348 peptide [4]): complete loss of aCT1 binding | adhesive properties (C6 glioma cell line): did not change in response to peptide treatment | morphology (C6 glioma cell line): altered morphology | type of inflammatory infiltrate (implants): the primary inflammatory infiltrate was macrophages | LV function (cryo-injured LV wall): sustained improvements in ventricular contractile performance over an 8-week study period | LV function (cryo-injured LV wall; listed as ACTI): significant improvement in LV diastolic and systolic function | Cx43 in myocytes bordering the injury (cryo-injured LV wall): reduced Cx43 GJ remodeling in injury border zone tissues | Cx43 in myocytes bordering the injury (cryo-injured LV wall; listed as ACTI): higher and more uniform, intercalated-disk-localized and pS368 phosphorylated Cx43 | arrhythmias (cryo-injured LV wall): decreased propensity of the injured hearts to develop inducible arrhythmias | arrhythmias (cryo-injured LV wall; listed as ACTI): dramatically reduced (p<0.05) frequency and severity of arrhythmias | appearance of incisional injury ([5]; at 7 days): smoother and less scarred appearance | appearance of incisional injury ([5]; by 48 hours): significantly more closed, less inflamed, less swollen

VFFKGVKDRVKGRSD [JM2]
CSC survival (cancer stem cells CSCs [6]): decreases CSC survival in vitro and in vivo | viability and self-renewal of colon cancer stem cells (cancer stem cells CSCs [7]): effectively reduced the viability and self-renewal of cancer stem cells from patients with colon cancer
